Results: patent US10392649B2, “Biosensors that detect NAD+” (Oregon Health & Science University, priority 2014, dated 2019)

Key:
NAD+ sensor = target: T1, NAD+ sensor (Enterococcus faecalis, UniProt Q837V6, D286N/K120L); assay: Specificity of the sensor: fluorescence with related mononucleotides, dinucleotides and NAD+ precursors; format: binding; details: purified sensor
T1 construct: HA (N); made in house; host or cells: HEK293T
Method: To determine the specificity of the sensor for NAD+, sensor fluorescence was evaluated in the presence of related mononucleotides, dinucleotides, and NAD+ precursors (FIG. 14G). […] Thus, pH effects can be accommodated by normalizing to cpVenus. […] (FIG. 24A, 24B, 24C).
(§1) Steady-state fluorescence intensity measurements were performed using a Photon Technology International Quanta Master fluorimeter. Excitation spectra were monitored at 530 nm and emission spectra were measured by excitation at 488 nm and 405 nm. Slit widths used gave 8 nm bandpass for excitation and 44 nm bandpass for emission. Absorbance spectroscopy was performed on a Shimadzu 1601 spectrophotometer. Temperature was controlled with a water jacket and monitored using an Omega Thermistor.

HeLa cells [1] = assay: NR in HeLa cells treated with siNAMPT, cytoplasmic sensor; format: cell-based; details: NR 1 mM, 24 hours
Method: In further experiments, siRNAs that target NAMPT were added to the cells (FIG. 15D). […] Importantly, nicotinamide riboside (NR) increased NAD+ levels in these cells through a parallel pathway that utilizes NR kinase to bypass NAMPT (Bieganowski P and Brenner C, Cell 117, 495-502 (2004); incorporated by reference herein) (FIG. 15E).
Live cell imaging was done on a fully motorized Nikon TiE stand with a Yokogawa W1 spinning disk confocal unit. Instrumentation for this project included a motorized stage in x and y for point-revisiting; z-axis control for fast piezo-based positioning and continuous focus-drift compensation for live cell imaging; dual-pinhole array for improved optical sectioning, a high powered Agilent laser launch; split simultaneous acquisition on two Andor Zyla 5.5 sCMOS cameras; and a 100×1.49 Apo TIRF objective. During imaging, cells were maintained in 5% CO2 at 34° C. Cells were excited at 488 nm and monitored with emission 525/25 nm. For each condition, at least 5 fields containing approximately 50-100 cells were used for quantification of pixel intensity using Metamorph software. The mean intensity per field of each siRNA was normalized to the scramble condition to obtain the normalized intensity measurement.

cytoplasmic sensor = target: T2, cytoplasmic sensor (Enterococcus faecalis, UniProt Q837V6, D286N/K120L); assay: NR effect on cytoplasmic sensor fluorescence when NMNAT2 was depleted; format: cell-based; details: NR 1 mM, 24 hours
T2 construct: expressed in transfected cells; HeLa cells were also used
From the text: FIG. 28 is a bar graph showing that Nicotinamide riboside (NR) has no direct effect on the fluorescence of the cytoplasmic sensor. The cytoplasmically-localized sensor reported a decrease of cytoplasmic NAD+ following depletion of NMNAT2.

HeLa cells [2] = assay: NR rescue of mitochondrial NAD+ in HeLa cells depleted of NMNAT2; format: cell-based; details: NR 1 mM, 24 hours, NMNAT2 depletion
From the text: To confirm this, HeLa cells, which contain very low levels of NMNAT3, were examined. […] Despite its low expression, NMNAT2 was active in HeLa cells, as its depletion decreased cytoplasmic NAD+ (FIG. 38). […] (FIG. 17B). This depletion was not rescued by addition of NR, implying that cytoplasmic NAD+, and not NMN, is responsible for maintaining mitochondrial NAD+ levels in HeLa cells (FIG. 17B). Thus, there appear to be multiple mechanisms for maintaining mitochondrial NAD+ in different cell types; conversion of NMN by NMNAT3 and active transport of cytoplasmic NAD+. An NAD+ transporter has been identified in bacteria (Haferkamp I et al, Nature 432, 622-625 (2004); incorporated by reference herein), yeast (Todisco S et al, J Biol Chem 281, 1524-1531 (2006); incorporated by reference herein), and plants (Palmieri F et al, J Biol Chem 284, 31249-31259 (2009); incorporated by reference herein), although a mammalian homologue has not yet been identified.
(§2) Live cell imaging was done on a fully motorized Nikon TiE stand with a Yokogawa W1 spinning disk confocal unit. […] Cells were excited at 488 nm and monitored with emission 525/25 nm. For each condition, at least 5 fields containing approximately 50-100 cells were used for quantification of pixel intensity using Metamorph software. […]

[3] = Fluorescence spectroscopy of purified sensor with NAD+ (cell free); format: binding; details: for effect of NAD+ on fluorescence (ex. 488 nm): purified protein, NAD+ concentrations up to 1 mM
Method: Fluorescence emission spectra were recorded using a PTI steady-state fluorescence spectrophotometer. Excitation spectra were captured at 530 nm while exciting from 350 to 515 nm. Emission spectra were measured by excitation at 405 nm or 488 nm while scanning the fluorescence intensity of 475 to 600 nm.
The sensors and controls were purified in batch format from mammalian HEK293T cells via their N-terminal Flag epitope tag, using anti-Flag M2 Affinity Gel (Sigma) and lysis buffer (50 mM Tris pH 7.4, 150 mM NaCl, 1 mM EDTA, 10 mM NaF, 0.5% NP-40, 1 mM DTT, and Complete Protease Inhibitor cocktail). Protein was eluted with 500 μg/mL 3× Flag peptide and dialyzed against 100 mM Tris pH 7.4, 150 mM NaCl, 0.5 mM DTT, 100 μM PMSF, 1 mM EDTA, and 50% glycerol. Bradford assays were used to quantify the concentration in each batch and aliquots were flash frozen in liquid nitrogen for storage at −80° C.
as §1

[4] = Fluorescence lifetime measurements of the sensor; details: 488 nm excitation
Method: Fluorescence lifetime measurements were performed on a PicoQuant FluoTime 200 time correlated single photon counting instrument (PicoQuant, Berlin), outfitted with a Hamamatsu micro-channel plate detector. Decays were measured with the polarizers at the magic angle and with 16 nm bandpass emission slits. […] Emission from the samples was collected at 525 nm, with an additional 520 nm long-pass filter on the detector side of the sample. The fluorescence decays were fit by means of PicoQuant software, using an exponential decay model [I(t)=Σi-1^nAie^−t/τ^i] where A, is the amplitude of the i^th component, in counts, in the first range fitting channel and τi is the lifetime of the i^th component.

[5] = NAD+ washout (reversibility of binding to purified sensor); details: 500 μM NAD+, elution over buffer exchange column
Method: Purified sensor (2 μM) was incubated with either 0μ or 500 μM NAD+ in a total of 75 μL and evaluated for its fluorescence excitation and emission spectra. Each sample was then passed over a pre-equilibrated (50 mM Tris pH 7.4, 150 mM NaCl) micro buffer exchange column (Biorad microbiospin P30), washed, and eluted in […] buffer volume for reevaluation of fluorescence.

HEK293T cells [6] = assay: HPLC of perchlorate extracted NAD+ from HEK293T cells; format: cell-based; details: 10 nM FK866, 16 hours
Method: FIG. 6A is a set of three HPLC spectra from 10 μM purified NAD^+ standard compared to perchlorate extracted NAD^+ from HEK293T cells treated with 0 nM (middle) or 10 nM (bottom) FK866 for 16 hours. Note that NAD^+ is recovered from untreated cells while it is depleted in FK866 treated cells.

HEK293T cells [7] = assay: NAD+ depletion by FK866 in cells expressing cytoplasmic sensor, live microscopy; format: cell-based
Method: (§3) Localization sequences were used to direct the sensor to the nucleus, cytoplasm, and mitochondria (FIG. 15A and FIG. 25A, 25B, 25C). […] Mammalian cells predominantly rely on the NAMPT-dependent salvage pathway for NAD+ biosynthesis (Revollo et al, 2004 supra), and presumably all subcellular compartments would be affected by NAMPT inhibition. To test this idea, clonal HEK293T lines stably expressing the localized sensors or their corresponding cpVenus control were generated. Cells were treated with FK866, a potent inhibitor of NAMPT, and NAD+ depletion in different compartments was monitored by live flow cytometry (FIG. 15B). FK866 increased sensor fluorescence in all compartments, indicating a reduction in NAD+ levels. Fluorescence was also monitored in cells expressing the cytoplasmic sensor using live microscopy (FIG. 15C). Treatment with FK866 began to decrease NAD+ levels in the majority of cells within 1 hour; by 3 hours pockets of NAD+ decreases were observed, which spread throughout the cytoplasm. […]
as §2

HEK293T = assay: NAD+ depletion by FK866 in HEK293T lines expressing localized sensors, live flow cytometry; format: cell-based; details: 10 nM FK866, 18 hours; nuclear, cytoplasmic, mitochondrial sensors
Method: as §3, with “15C).” for “15C). Treatment with FK866 began to decrease NAD+ levels in the majority of cells within 1 hour; by 3 hours pockets of NAD+ decreases were observed, which spread throughout the cytoplasm.”
(§4) Data was collected on a special order BD LSRFortessa using 488-1 (Ex. 488 nm, Em. 525/50) and 405-2 (ex. 405 nm, Em. 515/20) for the sensor, and Ex. 561-3 (ex. 561, em 670/30) for PI intensity. Cells were gated to exclude debris, a standard doublet-exclusion was performed, and 1×10^4 fluorescent cells were evaluated per condition. Data were analyzed and plotted with FlowJo X. Sensor 488/405 ratiometric values were normalized to the appropriate cpVenus and experimental controls. […]

[8] = Calibration of cytoplasmic sensor in digitonin permeabilized HEK293T cells, flow cytometry; format: cell-based
Method: The free NAD+ concentration in the nucleus and cytoplasm has been debated. To calibrate the sensor, cells were permeabilized with digitonin to allow internal NAD+ levels to equilibrate with concentrations external to the cell and fluorescence monitored by flow cytometry. Equilibration was assessed using propidium iodide (PI), whose molecular weight is similar to that of NAD+ (FIG. 29). […] The mean of the fluorescence ratio (488/405 nm) for the cytoplasmic sensor in non-permeabilized HEK293T cells relative to cpVenus was interpolated to reveal a free NAD+ value of 105.8 μM (95% Cl, 92.3 μM to 121.7 μM). […] To confirm these calculations, flow cytometry was used to examine the fluorescence of the cytoplasmic sensor in populations of HeLa cells that were partially permeabilized (FIG. 16B). When equilibrated with either 500 μM or 1 mM NAD+, cytoplasmic fluorescence of the permeabilized cell population decreased, indicating an increase in NAD+. In contrast, equilibration with media containing no external NAD+ increased fluorescence, likely due to NAD+ diffusion. […]
as §4, with “condition.” for “condition. Data were analyzed and plotted with FlowJo X. Sensor 488/405 ratiometric values were normalized to the appropriate cpVenus and experimental controls.”

[9] = Competition for free NAD+ with GAPDH, sensor fluorescence in real time; format: binding; details: equimolar GAPDH, absence of substrate, 10 μM NAD+
Method: Fluorescence emission of […] purified sensor was monitored at 520 nm following excitation at 488 nm over time. Three 1-second exposures were obtained every 30 seconds at 20° C. in 100 mM HEPES pH7.4, 150 mM NaCl, 10 mM MgCl2. At the 240 timepoint, NAD+ was added to a final concentration of 10 μM; at the 600 second timepoint, full-length active human GAPDH (AbCam) was added to a final concentration of 11.7 μM. Fluorescence measurements were corrected for dilution factor. Mean±SD, n=2.

T1 sequence (Q837V6 other isoform, or with tags, fused parts or gaps K120L/D286N): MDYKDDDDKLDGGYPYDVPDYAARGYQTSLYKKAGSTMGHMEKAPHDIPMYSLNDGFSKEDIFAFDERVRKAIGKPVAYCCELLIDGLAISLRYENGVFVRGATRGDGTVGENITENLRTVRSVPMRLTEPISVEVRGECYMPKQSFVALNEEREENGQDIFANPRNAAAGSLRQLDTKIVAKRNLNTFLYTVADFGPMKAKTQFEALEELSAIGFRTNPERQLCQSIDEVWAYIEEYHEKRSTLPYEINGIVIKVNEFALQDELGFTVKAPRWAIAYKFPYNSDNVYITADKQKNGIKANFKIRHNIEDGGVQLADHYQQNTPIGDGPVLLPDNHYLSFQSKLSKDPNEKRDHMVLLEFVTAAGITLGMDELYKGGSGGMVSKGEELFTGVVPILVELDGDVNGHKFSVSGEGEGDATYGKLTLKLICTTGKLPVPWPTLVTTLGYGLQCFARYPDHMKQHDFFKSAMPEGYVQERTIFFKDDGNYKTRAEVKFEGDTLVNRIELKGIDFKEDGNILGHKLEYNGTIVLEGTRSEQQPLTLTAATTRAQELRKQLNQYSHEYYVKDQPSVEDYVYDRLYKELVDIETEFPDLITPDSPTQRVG
T2 sequence (Q837V6 other isoform, or with tags, fused parts or gaps K120L/D286N): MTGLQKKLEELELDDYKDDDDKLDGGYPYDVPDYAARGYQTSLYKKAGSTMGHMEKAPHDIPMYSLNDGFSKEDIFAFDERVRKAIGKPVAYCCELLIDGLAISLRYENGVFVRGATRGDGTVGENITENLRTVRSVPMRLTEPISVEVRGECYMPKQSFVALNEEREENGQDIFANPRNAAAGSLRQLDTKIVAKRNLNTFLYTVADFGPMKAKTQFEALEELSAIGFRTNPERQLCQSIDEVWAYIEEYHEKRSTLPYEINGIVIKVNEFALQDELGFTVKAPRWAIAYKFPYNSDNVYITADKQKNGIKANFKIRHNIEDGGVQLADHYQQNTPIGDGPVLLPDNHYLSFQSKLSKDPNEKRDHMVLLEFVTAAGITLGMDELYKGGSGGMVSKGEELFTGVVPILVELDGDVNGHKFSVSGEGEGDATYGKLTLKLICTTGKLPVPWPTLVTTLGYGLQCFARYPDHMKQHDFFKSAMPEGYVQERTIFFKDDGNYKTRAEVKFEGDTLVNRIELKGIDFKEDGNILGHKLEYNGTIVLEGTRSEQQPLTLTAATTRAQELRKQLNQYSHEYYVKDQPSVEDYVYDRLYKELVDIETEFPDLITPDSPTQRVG

NC(=O)c1ccc[n+]([C@@H]2O[C@H](COP(=O)([O-])OP(=O)(O)OC[C@H]3O[C@@H](n4cnc5c(N)ncnc54)[C@H](O)[C@@H]3O)[C@@H](O)[C@H]2O)c1 [NAD+, nicotinamide adenine dinucleotide]
effect of substrate on sensor fluorescence / recognition by the sensor (NAD+ sensor): decreased sensor fluorescence

NC(=O)c1ccc[n+]([C@@H]2O[C@H](CO)[C@@H](O)[C@H]2O)c1 [NR, nicotinamide riboside]
NAD+ levels (HeLa cells [1]): increased
nonspecific effect on sensor fluorescence (cytoplasmic sensor): did not alter
effect of substrate on sensor fluorescence / recognition by the sensor (NAD+ sensor): not recognized
rescue of decreased mitochondrial NAD+ (HeLa cells [2]): not rescued

sensor: NAD+ biosensor polypeptide: FLAG, HA, LigA 78-317 fragment, cpVenus, linker, LigA 2-70 fragment
change in the Kd value with temperature ([3]; between 20-37° C.): no significant changes
Kd ([3]; in vitro, purified sensor, 488 nm, read-out: apparent Kd(NAD+)): ~65 µM
NAD+-dependent responses across pH ([3]; pH 6.5-8.0): similar
effect of NAD+ on fluorescence (ex. 488 nm) [3]: decreased
effect of NAD+ binding on second excitation peak at 405 nm ([3]; purified sensor): unaffected
effect of NAD+ on fluorescence lifetime [4]: did not affect
reversibility of NAD+ binding [5]: reversible

O=C(/C=C/c1cccnc1)NCCCCC1CCN(C(=O)c2ccccc2)CC1 [FK866]
NAD+ recovered by HPLC (HEK293T cells [6]): depleted
time at which NAD+ levels began to decrease in the majority of cells (HEK293T cells [7]): ≤ 1 h
sensor fluorescence in all compartments (indicating reduction in NAD+ levels) (HEK293T): increased

cpVenus: circularly permuted version of Venus fluorescent protein, control
effect of NAD+ on fluorescence in permeabilized cells [8]: minimally affected
effect of NAD+ on fluorescence (ex. 488 nm) [3]: minimally affected

GAPDH: full-length active human glyceraldehyde 3-phosphate dehydrogenase (AbCam)
sensor fluorescence upon GAPDH addition [9]: almost immediate recovery of fluorescence
